Experimental data reported in US10526347B2, “3-(3H-imidazo[4,5-B]pyridin-2-yl)-1H-pyrazolo[3,4-B]pyridine and therapeutic uses thereof” (Samumed, LLC, priority 2014, dated 2020).

Tests used:
[1] = tested on: Wnt activity (SW480 colon carcinoma cells stably expressing the Sp5-Luc reporter gene); test: Sp5-Luc reporter gene screening assay for Wnt activity; format: cell-based; conditions: Homo sapiens
Source text: The screening assay for Wnt activity is described as follows. Reporter cell lines can be generated by stably transducing cancer cell lines (e.g., colon cancer) or primary cells (e.g., IEC-6 intestinal cells) with a lentiviral construct that includes a Wnt-responsive promoter driving expression of the firefly luciferase gene.
SW480 colon carcinoma cells were transduced with a lentiviral vector expressing luciferase with a human Sp5 promoter consisting of a sequence of eight TCF/LEF binding sites. SW480 cells stably expressing the Sp5-Luc reporter gene and a hygromycin resistance gene were selected by treatment with 150 μg/ml of hygromycin for 7 days. These stably transduced SW480 cells were expanded in cell culture and used for all further screening activities. For Sp5-Luc reporter gene assays, the cells were plated at 10,000 cells/well in 96-well plates with growth medium containing 10% fetal calf serum and incubated overnight at 37° C. and 5% CO2. Each compound was dissolved in DMSO as a 10 mM stock in standard j-vials and used to prepare compound source plates in dose-response format with 3-fold serial dilutions and a 10 mM top concentration. Compound transfer from serially diluted source plates to assay plates containing the cells was accomplished using a pintool (Multimek 96, Beckman equipped with V&P Scientific FP1S50H pins) based liquid handling protocol. This protocol used a slotted pin to transfer 50 nl of compound from a source plate well to an assay plate well containing 50 μl of cells in growth medium. […] Control wells received 50 nl of DMSO treatment for normalization and calculating IC50 values. The treated cells were incubated at 37° C. and 5% CO2 for an additional forty-two hours. Following incubation, the growth medium was removed and 50 μl of BrightGlo luminescence reagent (Promega) was added to each well of the 96-well assay plates. The plates were placed on an orbital shaker for 5 min and then luminescence was quantified on the Victor3 (Perkin Elmer) plate reader. Readings were normalized to DMSO only treated cells, and normalized activities were utilized for IC50 calculations using the dose-response log (inhibitor) vs. response -variable slope (four parameters) nonlinear regression feature available in GraphPad Prism 5.0 or 6.0.

[2] = tested on: primary human fibroblasts derived from IPF patients (LL29 cells); test: Inhibition of the fibrotic process in TGF-β1 treated IPF patient fibroblasts (αSMA staining); format: cell-based; conditions: Fibroblast, 96 h, LL29 cells treated with TGF-β1 (20 ng/mL), 4 days, read-out: Inhibition of fibrosis EC50
Source text: The above synthesized compounds were screened using primary human fibroblasts (derived from IPF patients) treated with TGF-β1 to determine their ability to inhibit the fibrotic process.
Primary human fibroblasts derived from IPF patients (LL29 cells) [^1Xiaoqiu Liu, et. al., “Fibrotic Lung Fibroblasts Show Blunted Inhibition by cAMP Due to Deficient cAMP Response Element-Binding Protein Phosphorylation”, Journal of Pharmacology and Experimental Therapeutics (2005), 315(2), 678-687; ^2Watts, K. L., et. al., “RhoA signaling modulates cyclin D1 expression in human lung fibroblasts; implications for idiopathic pulmonary fibrosis”, Respiratory Research (2006), 7(1), 88] were obtained from American Type Culture Collection (ATCC) and expanded in F12 medium supplemented with 15% Fetal Bovine Serum and Penicillin/Streptomycin.
Each compound was dissolved in DMSO as a 10 mM stock and used to prepare compound source plates. Serial dilution (1:2, 11-point dose-response curves from 10 μM to 1.87 nM) and compound transfer was performed using the ECHO 550 (Labcyte, Sunnyvale, Calif.) into 384-well clear bottom assay plates (Greiner Bio-One) with appropriate DMSO backfill for a final DMSO concentration of 0.1%. LL29 cells were plated at 1,500 cells/well in 80 μl/well F12 medium supplemented with 1% Fetal Bovine Serum. One hour after addition of the cells, TGF-β1 (Peprotech; 20 ng/mL) was added to the plates to induce fibrosis (ref. 1 and 2 above). Wells treated with TGF-β1 and containing DMSO were used as controls. Cells were incubated at 37° C. and 5% CO2 for 4 days. Following incubation for 4 days, SYTOX green nucleic acid stain (Life Technologies [Thermo Fisher Scientific]) was added to the wells at a final concentration of 1 uM and incubated at room temperature for 30 min. Cells were then fixed using 4% formaldehyde (Electron Microscopy Sciences), washed 3 times with PBS followed by blocking and permeabilization using 3% Bovine Serum Albumin (BSA; Sigma) and 0.3% Triton X-100 (Sigma) in PBS. Cells were then stained with antibody specific to α-smooth muscle actin (αSMA; Abcam) (ref. 1 and 2 above) in 3% Bovine Serum Albumin (BSA; Sigma) and 0.3% Triton X-100 (Sigma) in PBS, and incubated overnight at 4° C. Cells were then washed 3 times with PBS, followed by incubation with Alexa Flor-647 conjugated secondary antibody (Life Technologies [Thermo Fisher Scientific]) and DAPI at room temperature for 1 hour. Cells were then washed 3 times with PBS and plates were sealed for imaging. αSMA staining was imaged by excitation at 630 nm and emission at 665 nm and quantified using the Compartmental Analysis program on the CellInsight CX5 (Thermo Scientific). Dead or apoptotic cells were excluded from analysis based on positive SYTOX green staining. % of total cells positive for αSMA were counted in each well and normalized to the average of 11 wells treated with TGF-β1 on the same plate using Dotmatics' Studies Software. The normalized averages (fold change over untreated) of 3 replicate wells for each compound concentration were used to create dose-responses curves and EC50 values were calculated using non-linear regression curve fit in the Dotmatics' Studies Software. The EC50 values are reported.

Row | SMILES | IC50 [1] [nM] | EC50 [2] [nM]
1 | CN(C)Cc1cncc(-c2cnc3[nH]nc(-c4nc5c(-c6cccs6)ccnc5[nH]4)c3c2)c1 [Compound 297, N,N-Dimethyl-1-(5-(3-(7-(thiophen-2-yl)-3H-imidazo[4,5-b]pyridin-2-yl)-1H-pyrazolo[3,4-b]pyridin-5-yl)pyridin-3-yl)methanamine] | > 10000 | ≥ 9990
2 | CN1CCN(c2ccnc3[nH]c(-c4n[nH]c5ncc(-c6cncc(CN7CCCCC7)c6)cc45)nc23)CC1 [Compound 198, 3-(7-(4-Methylpiperazin-1-yl)-3H-imidazo[4,5-b]pyridin-2-yl)-5-(5-(piperidin-1-ylmethyl)pyridin-3-yl)-1H-pyrazolo[3,4-b]pyridine] | > 10000 | 3040
3 | CC(C)CC(=O)Nc1cncc(-c2cnc3[nH]nc(-c4nc5c(-c6ccc(F)s6)ccnc5[nH]4)c3c2)c1 [Compound 312, N-(5-(3-(7-(5-Fluorothiophen-2-yl)-3H-imidazo[4,5-b]pyridin-2-yl)-1H-pyrazolo[3,4-b]pyridin-5-yl)pyridin-3-yl)-3-methylbutanamide] | 27 | 189
4 | Cc1cn(-c2ccnc3[nH]c(-c4n[nH]c5ncc(-c6cncc(CN7CCCC7)c6)cc45)nc23)cn1 [Compound 171, 3-(7-(4-Methyl-1H-imidazol-1-yl)-3H-imidazo[4,5-b]pyridin-2-yl)-5-(5-(pyrrolidin-1-ylmethyl)pyridin-3-yl)-1H-pyrazolo[3,4-b]pyridine] | 276 | ≤ 9
5 | Fc1cccc(-c2ccnc3[nH]c(-c4n[nH]c5ncc(C6=CCNCC6)cc45)nc23)c1 [Compound 910, 3-(7-(3-Fluorophenyl)-3H-imidazo[4,5-b]pyridin-2-yl)-5-(1,2,3,6-tetrahydropyridin-4-yl)-1H-pyrazolo[3,4-b]pyridine] | > 10000 | ≥ 9990
6 | O=C(Nc1cncc(-c2cnc3[nH]nc(-c4nc5c(-c6ccsc6)ccnc5[nH]4)c3c2)c1)c1ccccc1 [Compound 243, N-(5-(3-(7-(Thiophen-3-yl)-3H-imidazo[4,5-b]pyridin-2-yl)-1H-pyrazolo[3,4-b]pyridin-5-yl)pyridin-3-yl)benzamide] | 33 | 113
7 | c1cncc(-c2cnc3[nH]nc(-c4nc5c(-c6cccnc6)ccnc5[nH]4)c3c2)c1 [Compound 68, 5-(Pyridin-3-yl)-3-(7-(pyridin-3-yl)-3H-imidazo[4,5-b]pyridin-2-yl)-1H-pyrazolo[3,4-b]pyridine] | > 10000 | ≥ 9990
8 | CN1CCN(c2ccnc3[nH]c(-c4n[nH]c5ncc(-c6cncc(N)c6)cc45)nc23)CC1 [Compound 186, 5-(3-(7-(4-Methylpiperazin-1-yl)-3H-imidazo[4,5-b]pyridin-2-yl)-1H-pyrazolo[3,4-b]pyridin-5-yl)pyridin-3-amine] | > 10000 | ≥ 9990
9 | Fc1cccc(-c2ccnc3[nH]c(-c4n[nH]c5ncc(-c6cncc(OC7CCNCC7)c6)cc45)nc23)c1 [Compound 916, 3-(7-(3-Fluorophenyl)-3H-imidazo[4,5-b]pyridin-2-yl)-5-(5-(piperidin-4-yloxy)pyridin-3-yl)-1H-pyrazolo[3,4-b]pyridine] | > 10000 | ≤ 9
10 | Oc1cncc(-c2cnc3[nH]nc(-c4nc5c(-c6cccc(F)c6)ccnc5[nH]4)c3c2)c1 [Compound 921, 5-(3-(7-(3-Fluorophenyl)-3H-imidazo[4,5-b]pyridin-2-yl)-1H-pyrazolo[3,4-b]pyridin-5-yl)pyridin-3-ol] | 27 | 164
11 | c1cncc(-c2cnc3[nH]nc(-c4nc5cccnc5[nH]4)c3c2)c1 [Compound 212, 3-(3H-Imidazo[4,5-b]pyridin-2-yl)-5-(pyridin-3-yl)-1H-pyrazolo[3,4-b]pyridine] | 214 | 501
12 | CN(C)Cc1cncc(-c2cnc3[nH]nc(-c4nc5c(N6CCCCC6)ccnc5[nH]4)c3c2)c1 [Compound 145, N,N-Dimethyl-1-(5-(3-(7-(piperidin-1-yl)-3H-imidazo[4,5-b]pyridin-2-yl)-1H-pyrazolo[3,4-b]pyridin-5-yl)pyridin-3-yl)methanamine] | 2800 | 1440
13 | Cc1ccncc1-c1cnc2[nH]nc(-c3nc4c(-c5ccsc5)ccnc4[nH]3)c2c1 [Compound 237, 5-(4-Methylpyridin-3-yl)-3-(7-(thiophen-3-yl)-3H-imidazo[4,5-b]pyridin-2-yl)-1H-pyrazolo[3,4-b]pyridine] | 21.6 | 282
14 | O=C(Nc1cncc(-c2cnc3[nH]nc(-c4nc5c(-c6ccncc6)ccnc5[nH]4)c3c2)c1)C1CCCCC1 [Compound 106, N-(5-(3-(7-(Pyridin-4-yl)-3H-imidazo[4,5-b]pyridin-2-yl)-1H-pyrazolo[3,4-b]pyridin-5-yl)pyridin-3-yl)cyclohexanecarboxamide] | > 10000 | ≥ 9990
15 | Cn1cc(-c2cnc3[nH]nc(-c4nc5c(-c6cccc(F)c6)ccnc5[nH]4)c3c2)cn1 [Compound 912, 3-(7-(3-Fluorophenyl)-3H-imidazo[4,5-b]pyridin-2-yl)-5-(1-methyl-1H-pyrazol-4-yl)-1H-pyrazolo[3,4-b]pyridine] | 221 | 118
16 | CC(C)C(=O)Nc1cncc(-c2cnc3[nH]nc(-c4nc5c(N6CCN(C)CC6)ccnc5[nH]4)c3c2)c1 [Compound 192, N-(5-(3-(7-(4-Methylpiperazin-1-yl)-3H-imidazo[4,5-b]pyridin-2-yl)-1H-pyrazolo[3,4-b]pyridin-5-yl)pyridin-3-yl)isobutyramide] | > 10000 | ≤ 9
17 | CN(C)CCOc1cncc(-c2cnc3[nH]nc(-c4nc5c(-c6cccc(F)c6)ccnc5[nH]4)c3c2)c1 [Compound 919, 2-((5-(3-(7-(3-Fluorophenyl)-3H-imidazo[4,5-b]pyridin-2-yl)-1H-pyrazolo [3,4-b]pyridin-5-yl)pyridin-3-yl)oxy)-N,N-dimethylethan-1-amine] | > 10000 | ≤ 9
18 | Fc1cccc(-c2ccnc3[nH]c(-c4n[nH]c5ncc(-c6cnccn6)cc45)nc23)c1 [Compound 926, 3-(7-(3-Fluorophenyl)-3H-imidazo[4,5-b]pyridin-2-yl)-5-(pyrazin-2-yl)-1H-pyrazolo[3,4-b]pyridine] | > 10000 | 13
19 | O=C(Nc1cncc(-c2cnc3[nH]nc(-c4nc5cccnc5[nH]4)c3c2)c1)C1CCCCC1 [Compound 228, N-(5-(3-(3H-Imidazo[4,5-b]pyridin-2-yl)-1H-pyrazolo[3,4-b]pyridin-5-yl)pyridin-3-yl)cyclohexanecarboxamide] | > 10000 | ≤ 9
